In BindingDB's records for doi:10.1021/jm960276a (Texas A&M University, 1996):
Square brackets hold non-standard residues; d marks the D form. Peptide text beside a SMILES is read from it. NMeR = CN[C@@H](CCCNC(=N)N)C(=O)O; 3Amb = NCc1cccc(C(=O)O)c1; dAbu = CC[C@@H](N)C(=O)O

These compounds were tested against Integrin alpha-IIb/beta-3 (Homo sapiens, UniProt P08514+P05106) (assay: Inhibition of human platelet aggregation mediated by alpha llb/beta3 interaction with fibrinogen).
Integrin alpha-IIb/beta-3, sequence (P05106 27-788 limits assumed): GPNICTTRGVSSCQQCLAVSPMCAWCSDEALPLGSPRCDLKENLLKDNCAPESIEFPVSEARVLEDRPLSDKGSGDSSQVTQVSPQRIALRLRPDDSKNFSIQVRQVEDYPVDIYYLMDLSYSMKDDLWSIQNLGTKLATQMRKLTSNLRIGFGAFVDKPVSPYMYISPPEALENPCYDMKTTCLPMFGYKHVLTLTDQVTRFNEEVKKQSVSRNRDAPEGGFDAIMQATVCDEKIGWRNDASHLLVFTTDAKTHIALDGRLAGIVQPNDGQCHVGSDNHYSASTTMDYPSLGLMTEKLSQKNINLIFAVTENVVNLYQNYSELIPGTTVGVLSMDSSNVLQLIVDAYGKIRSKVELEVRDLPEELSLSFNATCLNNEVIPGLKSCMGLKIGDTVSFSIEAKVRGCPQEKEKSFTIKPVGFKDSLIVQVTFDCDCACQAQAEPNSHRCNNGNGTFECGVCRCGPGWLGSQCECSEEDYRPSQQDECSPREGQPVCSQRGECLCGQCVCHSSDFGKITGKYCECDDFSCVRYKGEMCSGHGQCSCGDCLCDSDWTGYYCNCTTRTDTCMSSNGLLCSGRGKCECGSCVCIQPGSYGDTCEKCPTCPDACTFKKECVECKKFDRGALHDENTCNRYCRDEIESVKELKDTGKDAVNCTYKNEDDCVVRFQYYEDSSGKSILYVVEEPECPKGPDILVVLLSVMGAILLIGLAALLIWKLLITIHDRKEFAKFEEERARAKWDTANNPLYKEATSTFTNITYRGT
Integrin alpha-IIb/beta-3, sequence (P08514 32-887 limits assumed): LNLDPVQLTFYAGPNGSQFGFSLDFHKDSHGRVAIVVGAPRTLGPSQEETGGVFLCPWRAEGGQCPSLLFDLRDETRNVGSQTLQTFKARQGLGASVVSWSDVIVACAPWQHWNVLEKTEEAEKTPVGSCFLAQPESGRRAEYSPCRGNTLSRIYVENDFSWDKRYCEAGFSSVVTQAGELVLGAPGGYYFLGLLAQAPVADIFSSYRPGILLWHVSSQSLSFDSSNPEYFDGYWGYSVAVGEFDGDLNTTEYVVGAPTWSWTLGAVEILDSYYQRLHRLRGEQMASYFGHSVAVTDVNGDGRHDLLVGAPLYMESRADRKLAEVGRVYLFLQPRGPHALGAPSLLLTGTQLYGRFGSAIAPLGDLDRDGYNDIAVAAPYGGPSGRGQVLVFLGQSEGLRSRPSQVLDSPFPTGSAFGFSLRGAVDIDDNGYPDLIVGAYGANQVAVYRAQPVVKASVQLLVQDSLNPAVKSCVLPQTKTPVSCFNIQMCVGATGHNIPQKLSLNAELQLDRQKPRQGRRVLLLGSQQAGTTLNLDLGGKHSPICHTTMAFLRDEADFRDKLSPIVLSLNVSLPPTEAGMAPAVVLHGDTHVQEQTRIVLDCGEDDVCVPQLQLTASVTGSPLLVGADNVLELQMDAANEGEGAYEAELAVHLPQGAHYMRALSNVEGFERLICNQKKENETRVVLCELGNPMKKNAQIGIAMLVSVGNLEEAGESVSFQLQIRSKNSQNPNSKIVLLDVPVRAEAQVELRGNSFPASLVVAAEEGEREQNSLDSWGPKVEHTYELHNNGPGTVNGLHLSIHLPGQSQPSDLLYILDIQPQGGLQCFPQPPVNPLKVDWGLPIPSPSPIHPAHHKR
Integrin alpha-IIb/beta-3, sequence (P08514 891-1039 limits assumed): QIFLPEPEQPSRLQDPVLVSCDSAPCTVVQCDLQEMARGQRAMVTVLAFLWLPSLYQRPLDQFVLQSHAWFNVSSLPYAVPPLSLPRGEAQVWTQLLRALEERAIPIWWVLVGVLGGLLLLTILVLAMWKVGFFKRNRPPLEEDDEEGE

IC50 [µM] | Structure (SMILES)
> 100 | N=C(N)NCCC[C@@H]1NC(=O)[C@H](CC(=O)O)NC(=O)CNC(=O)[C@H](CCCNC(=N)N)NC(=O)[C@@H](CC(=O)O)NC(=O)CNC1=O [[(2S,5R,11S,14S)-11-Carboxymethyl-5,14-bis-(3-guanidino-propyl)-3,6,9,12,15,18-hexaoxo-1,4,7,10,13,16hexaaza-cyclooctadec-2-yl]-acetic acid]
> 100 | N=C(N)NCCC[C@H](NC(=O)[C@H](CC(=O)O)NC(=O)CNC(=O)[C@@H](N)CCCNC(=N)N)C(=O)NCC(=O)N[C@@H](CC(=O)O)C(=O)O [(S)-2-[2-((S)-2-{(S)-2-[2-((S)-2-Amino-5-guanidino-pentanoylamino)-acetylamino]-3-carboxy-propionylamino}-5-guanidino-pentanoylamino)-acetylamino]-succinic acid] (H-RGDRGD-OH)
0.02 | CC[C@H]1NC(=O)c2cccc(c2)CNC(=O)[C@H](CC(=O)O)NC(=O)CNC(=O)[C@H](CCCN=C(N)N)N(C)C1=O [DMP-728] (cyclo([NMeR]GD[3Amb][dAbu]))
> 100 | N=C(N)NCCC[C@@H]1NC(=O)[C@H](CC(=O)O)NC(=O)CNC(=O)[C@H](CCCNC(=N)N)NC(=O)[C@H](CC(=O)O)NC(=O)CNC1=O [[(2S,5R,11R,14S)-11-Carboxymethyl-5,14-bis-(3-guanidino-propyl)-3,6,9,12,15,18-hexaoxo-1,4,7,10,13,16hexaaza-cyclooctadec-2-yl]-acetic acid]
